pIC50: −log10 of the molar value.
System: 496974-208-R-J2-PDC complex spheroids, growth % test/control
Test: Anticancer human tumor 496974-208-R-J2-PDC patient-derived pancreatic carcinoma cell line growth inhibition [CLK]
Conditions: for pIC50: curve of first compound; for viability, T/C: stronger effect = lower value
How it was run: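 Multi-cell-type spheroids combined patient-derived tumor cells with HUVEC endothelial cells and human mesenchymal stem cells. Paired agents were dosed in half-log steps down from about clinical Cmax, or from 10 microM where Cmax was unknown.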

[1] = second compound 0.0316 µM, first compound 0.0316 µM
[2] = second compound 0.0316 µM, first compound 0.1 µM
[3] = second compound 0.0316 µM, first compound 0.316 µM
[4] = second compound 0.0316 µM, first compound 1 µM
[5] = second compound 0.0316 µM, first compound 3.16 µM
[6] = second compound 0.0316 µM, first compound 10 µM
[7] = second compound 0.1 µM, first compound 0.0316 µM
[8] = second compound 0.1 µM, first compound 0.1 µM
[9] = second compound 0.1 µM, first compound 0.316 µM
[10] = second compound 0.1 µM, first compound 1 µM
[11] = second compound 0.1 µM, first compound 3.16 µM
[12] = second compound 0.1 µM, first compound 10 µM
[13] = second compound 0.316 µM, first compound 0.0316 µM
[14] = second compound 0.316 µM, first compound 0.1 µM
[15] = second compound 0.316 µM, first compound 0.316 µM
[16] = second compound 0.316 µM, first compound 1 µM
[17] = second compound 0.316 µM, first compound 3.16 µM
[18] = second compound 0.316 µM, first compound 10 µM
[19] = second compound 1 µM, first compound 0.0316 µM
[20] = second compound 1 µM, first compound 0.1 µM
[21] = second compound 1 µM, first compound 0.316 µM
[22] = second compound 1 µM, first compound 1 µM
[23] = second compound 1 µM, first compound 3.16 µM
[24] = second compound 1 µM, first compound 10 µM
[25] = second compound 3.16 µM, first compound 0.0316 µM
[26] = second compound 3.16 µM, first compound 0.1 µM
[27] = second compound 3.16 µM, first compound 0.316 µM
[28] = second compound 3.16 µM, first compound 1 µM
[29] = second compound 3.16 µM, first compound 3.16 µM
[30] = second compound 3.16 µM, first compound 10 µM
[31] = second compound 10 µM, first compound 0.0316 µM
[32] = second compound 10 µM, first compound 0.1 µM
[33] = second compound 10 µM, first compound 0.316 µM
[34] = second compound 10 µM, first compound 1 µM
[35] = second compound 10 µM, first compound 3.16 µM
[36] = second compound 10 µM, first compound 10 µM
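Note: spheroids exposed to the drugs for 7 days before readout.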
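Throughout, for viability, T/C: 100% = DMSO vehicle control wells.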

CC(=O)O[C@H]1C(=O)[C@@]2(C)[C@H]([C@H](OC(=O)c3ccccc3)[C@]3(O)C[C@H](OC(=O)[C@H](O)[C@@H](NC(=O)c4ccccc4)c4ccccc4)C(C)=C1C3(C)C)[C@]1(OC(C)=O)CO[C@@H]1C[C@@H]2O + CN1CCN(c2cc(C(=O)Nc3cc4cc(-c5cnn(C)c5)ccc4cn3)ccn2)CC1
pIC50 (second compound 0.0316 µM): > 7.50 | pIC50 (second compound 0.1 µM): > 7.50 | pIC50 (second compound 0.316 µM): > 7.50 | pIC50 (second compound 1 µM): > 7.50 | pIC50 (second compound 3.16 µM): > 7.50 | pIC50 (second compound 10 µM): > 7.50 | viability, T/C [1]: 35.9% | viability, T/C [2]: 29.4% | viability, T/C [3]: 33.5% | viability, T/C [4]: 29.2% | viability, T/C [5]: 31.5% | viability, T/C [6]: 27.9% | viability, T/C [7]: 29.4% | viability, T/C [8]: 25.9% | viability, T/C [9]: 27.7% | viability, T/C [10]: 29.5% | viability, T/C [11]: 24.8% | viability, T/C [12]: 23.7% | viability, T/C [13]: 5.33% | viability, T/C [14]: 4.57% | viability, T/C [15]: 5.74% | viability, T/C [16]: 4.55% | viability, T/C [17]: 5.22% | viability, T/C [18]: 4.68% | viability, T/C [19]: 0.41% | viability, T/C [20]: 0.53% | viability, T/C [21]: 0.5% | viability, T/C [22]: 0.41% | viability, T/C [23]: 0.36% | viability, T/C [24]: 0.37% | viability, T/C [25]: 0.58% | viability, T/C [26]: 0.77% | viability, T/C [27]: 2.07% | viability, T/C [28]: 0.54% | viability, T/C [29]: 0.58% | viability, T/C [30]: 0.34% | viability, T/C [31]: 0.23% | viability, T/C [32]: 0.29% | viability, T/C [33]: 0.24% | viability, T/C [34]: 0.25% | viability, T/C [35]: 2.61% | viability, T/C [36]: 0.28%

CCc1c2c(nc3ccc(O)cc13)-c1cc3c(c(=O)n1C2)COC(=O)[C@]3(O)CC + CN1CCN(c2cc(C(=O)Nc3cc4cc(-c5cnn(C)c5)ccc4cn3)ccn2)CC1
pIC50 (second compound 0.0316 µM): 8.11 | pIC50 (second compound 0.1 µM): > 8.50 | pIC50 (second compound 0.316 µM): > 8.50 | pIC50 (second compound 1 µM): > 8.50 | pIC50 (second compound 3.16 µM): > 8.50 | pIC50 (second compound 10 µM): > 8.50 | viability, T/C (second compound 0.0316 µM, first compound 0.00316 µM): 62.2% | viability, T/C (second compound 0.0316 µM, first compound 0.01 µM): 47.5% | viability, T/C [1]: 26.7% | viability, T/C [2]: 14.5% | viability, T/C [3]: 6.46% | viability, T/C [4]: 1.65% | viability, T/C (second compound 0.1 µM, first compound 0.00316 µM): 49.3% | viability, T/C (second compound 0.1 µM, first compound 0.01 µM): 38.7% | viability, T/C [7]: 23.3% | viability, T/C [8]: 10.7% | viability, T/C [9]: 3.35% | viability, T/C [10]: 0.91% | viability, T/C (second compound 0.316 µM, first compound 0.00316 µM): 6.81% | viability, T/C (second compound 0.316 µM, first compound 0.01 µM): 5.74% | viability, T/C [13]: 3.64% | viability, T/C [14]: 2% | viability, T/C [15]: 0.48% | viability, T/C [16]: 1.92% | viability, T/C (second compound 1 µM, first compound 0.00316 µM): 0.35% | viability, T/C (second compound 1 µM, first compound 0.01 µM): 0.69% | viability, T/C [19]: 3.07% | viability, T/C [20]: 0.44% | viability, T/C [21]: 0.26% | viability, T/C [22]: 1.23% | viability, T/C (second compound 3.16 µM, first compound 0.00316 µM): 0.46% | viability, T/C (second compound 3.16 µM, first compound 0.01 µM): 0.62% | viability, T/C [25]: 1.9% | viability, T/C [26]: 0.34% | viability, T/C [27]: 0.73% | viability, T/C [28]: 0.29% | viability, T/C (second compound 10 µM, first compound 0.00316 µM): 0.14% | viability, T/C (second compound 10 µM, first compound 0.01 µM): 0.25% | viability, T/C [31]: 1.21% | viability, T/C [32]: 0.21% | viability, T/C [33]: 0.65% | viability, T/C [34]: 3.41%

COc1ccc([C@@H](O)c2cc(-c3ncnc4cc(N5CCOCC5)ccc34)c(F)cc2Cl)nn1 + CN1CCN(c2cc(C(=O)Nc3cc4cc(-c5cnn(C)c5)ccc4cn3)ccn2)CC1
pIC50 (second compound 0.0316 µM): 5.22 | pIC50 (second compound 0.1 µM): 5.46 | pIC50 (second compound 0.316 µM): > 7.50 | pIC50 (second compound 1 µM): > 7.50 | pIC50 (second compound 3.16 µM): > 7.50 | pIC50 (second compound 10 µM): > 7.50 | viability, T/C [1]: 110% | viability, T/C [2]: 101% | viability, T/C [3]: 92.9% | viability, T/C [4]: 88.7% | viability, T/C [5]: 63.6% | viability, T/C [6]: 37.7% | viability, T/C [7]: 84.8% | viability, T/C [8]: 81.4% | viability, T/C [9]: 84.2% | viability, T/C [10]: 69.9% | viability, T/C [11]: 52.2% | viability, T/C [12]: 31.5% | viability, T/C [13]: 4.25% | viability, T/C [14]: 4.3% | viability, T/C [15]: 5.59% | viability, T/C [16]: 3.72% | viability, T/C [17]: 2.53% | viability, T/C [18]: 1.66% | viability, T/C [19]: 0.41% | viability, T/C [20]: 0.45% | viability, T/C [21]: 2.89% | viability, T/C [22]: 0.48% | viability, T/C [23]: 1.17% | viability, T/C [24]: 1.46% | viability, T/C [25]: 0.36% | viability, T/C [26]: 0.61% | viability, T/C [27]: 0.67% | viability, T/C [28]: 0.54% | viability, T/C [29]: 2.79% | viability, T/C [30]: 2.82% | viability, T/C [31]: 0.19% | viability, T/C [32]: 0.34% | viability, T/C [33]: 1.74% | viability, T/C [34]: 0.3% | viability, T/C [35]: 2% | viability, T/C [36]: 2.87%

COc1cccc2c1C(=O)c1c(O)c3c(c(O)c1C2=O)CC(O)(C(=O)CO)CC3OC1CC(N)C(O)C(C)O1 (stereo not given) + CN1CCN(c2cc(C(=O)Nc3cc4cc(-c5cnn(C)c5)ccc4cn3)ccn2)CC1
pIC50 (second compound 0.0316 µM): 6.92 | pIC50 (second compound 0.1 µM): 7.11 | pIC50 (second compound 0.316 µM): > 7.50 | pIC50 (second compound 1 µM): > 7.50 | pIC50 (second compound 3.16 µM): > 7.50 | pIC50 (second compound 10 µM): > 7.50 | viability, T/C [1]: 68.7% | viability, T/C [2]: 51.4% | viability, T/C [3]: 30.8% | viability, T/C [4]: 3.22% | viability, T/C [5]: 0.57% | viability, T/C [6]: 0.47% | viability, T/C [7]: 59.9% | viability, T/C [8]: 46.6% | viability, T/C [9]: 20.3% | viability, T/C [10]: 2.07% | viability, T/C [11]: 0.59% | viability, T/C [12]: 4.88% | viability, T/C [13]: 7.3% | viability, T/C [14]: 3.63% | viability, T/C [15]: 1.93% | viability, T/C [16]: 0.81% | viability, T/C [17]: 0.45% | viability, T/C [18]: 3.13% | viability, T/C [19]: 0.57% | viability, T/C [20]: 1.13% | viability, T/C [21]: 0.75% | viability, T/C [22]: 0.66% | viability, T/C [23]: 0.36% | viability, T/C [24]: 4.38% | viability, T/C [25]: 0.52% | viability, T/C [26]: 0.84% | viability, T/C [27]: 0.57% | viability, T/C [28]: 0.48% | viability, T/C [29]: 1.77% | viability, T/C [30]: 4.51% | viability, T/C [31]: 0.22% | viability, T/C [32]: 1.44% | viability, T/C [33]: 0.2% | viability, T/C [34]: 0.2% | viability, T/C [35]: 0.21% | viability, T/C [36]: 5.39%

O=c1[nH]cc(F)c(=O)[nH]1 + CN1CCN(c2cc(C(=O)Nc3cc4cc(-c5cnn(C)c5)ccc4cn3)ccn2)CC1
pIC50 (second compound 0.0316 µM): 5.23 | pIC50 (second compound 0.1 µM): 5.38 | pIC50 (second compound 0.316 µM): > 7.50 | pIC50 (second compound 1 µM): > 7.50 | pIC50 (second compound 3.16 µM): > 7.50 | pIC50 (second compound 10 µM): > 7.50 | viability, T/C [1]: 108% | viability, T/C [2]: 99.2% | viability, T/C [3]: 99.3% | viability, T/C [4]: 76.8% | viability, T/C [5]: 60.1% | viability, T/C [6]: 42% | viability, T/C [7]: 83.5% | viability, T/C [8]: 83.7% | viability, T/C [9]: 76.3% | viability, T/C [10]: 68.1% | viability, T/C [11]: 54.2% | viability, T/C [12]: 37.4% | viability, T/C [13]: 7.23% | viability, T/C [14]: 6.68% | viability, T/C [15]: 5.78% | viability, T/C [16]: 6.41% | viability, T/C [17]: 6.09% | viability, T/C [18]: 6.36% | viability, T/C [19]: 0.41% | viability, T/C [20]: 0.51% | viability, T/C [21]: 0.5% | viability, T/C [22]: 0.43% | viability, T/C [23]: 0.32% | viability, T/C [24]: 0.55% | viability, T/C [25]: 0.44% | viability, T/C [26]: 0.46% | viability, T/C [27]: 0.41% | viability, T/C [28]: 0.57% | viability, T/C [29]: 0.41% | viability, T/C [30]: 2.84% | viability, T/C [31]: 0.24% | viability, T/C [32]: 0.41% | viability, T/C [33]: 0.35% | viability, T/C [34]: 0.27% | viability, T/C [35]: 1.4% | viability, T/C [36]: 1.8%

From PubChem BioAssay AID2060615 (Molecular Pharmacology Branch, DTP, NCI, 2025)
